Consider two molecules from US20250154597A1, “TRANSCRIPTIONAL REPROGRAMMING DIFFERENTIATES ACTIVE FROM INACTIVE ESR1 FUSIONS IN ENDOCRINE THERAPY-REFRACTORY METASTATIC BREAST CANCER” (Baylor College of Medicine, priority 2021, published 2025).

The test system of assay [1] is T47D cells. As to the kind of experiment: Cell growth, alamarBlue assay. The assay is classed as cell-based. Particulars: 100 nM fulvestrant, 7-10 days. How it is done: Cell growth, motility and invasion assays—Cell growth assays of different ESR1 fusion protein expressing breast cancer cells that were first hormone-deprived and then subsequently treated either with 100 nM fulvestrant in the presence or absence of 10 nM E2 for 7-10 days were performed in 96-well plates using an alamarBlue™ assay as described (7). Cell growth reading values were normalized to that of control YFP cells, −E2.
(§1) To characterize each chimeric ESR1 fusion protein, HA-tagged cDNA constructs were expressed in two ER+ breast cancer cell lines (T47D and MCF7) by lentiviral transduction. Stable cell lines expressing yellow fluorescent protein (YFP) were generated as negative controls. Truncated ESR1 (ESR1-e6 protein) and wild-type ESR1 (ESR1-WT protein) were also stably expressed to provide over-expression controls (FIGS. 2A and 2D). When cells were treated with 100 nM fulvestrant, a selective ERα degrader that inhibits endogenous ERα (21), the level of ESR1 fusion protein was predictably unaffected. In comparison, the WT ERα protein was reliably degraded, providing an endogenous control for fulvestrant activity (FIGS. 2A and 2D). […] Cell growth was measured using an alamarBlue assay. […]

For assay [2], the target named is T1, WT ERα protein (Homo sapiens, UniProt P03372).
T1 sequence (P03372 1-595): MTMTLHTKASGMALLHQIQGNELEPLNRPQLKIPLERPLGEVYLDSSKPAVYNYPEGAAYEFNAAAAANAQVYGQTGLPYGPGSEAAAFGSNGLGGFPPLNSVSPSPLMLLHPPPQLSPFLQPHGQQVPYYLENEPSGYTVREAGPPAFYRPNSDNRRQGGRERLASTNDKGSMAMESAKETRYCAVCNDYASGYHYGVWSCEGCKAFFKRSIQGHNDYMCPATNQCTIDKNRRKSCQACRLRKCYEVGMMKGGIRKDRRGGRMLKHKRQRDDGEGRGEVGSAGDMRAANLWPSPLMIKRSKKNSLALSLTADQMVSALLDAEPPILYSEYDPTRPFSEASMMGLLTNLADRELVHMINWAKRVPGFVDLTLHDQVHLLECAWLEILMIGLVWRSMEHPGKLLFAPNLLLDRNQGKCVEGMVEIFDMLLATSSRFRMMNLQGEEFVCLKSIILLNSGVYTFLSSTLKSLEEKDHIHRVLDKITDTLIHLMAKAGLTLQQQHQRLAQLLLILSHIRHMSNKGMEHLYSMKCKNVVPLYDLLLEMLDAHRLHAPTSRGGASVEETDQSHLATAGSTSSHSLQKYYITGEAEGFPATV
Description: Immunoblotting of endogenous WT ERα after fulvestrant treatment. The class given is cell-based. Particulars: 100 nM fulvestrant; hormone-deprived stable T47D and MCF7 cells. For orientation: In western blotting, separated proteins are transferred to a membrane and probed.
Description: Immunoblotting and immunoprecipitation—Cells were harvested and whole cell lysates were prepared in RIPA lysis buffer as described (7) or in MIB lysis buffer (10) supplemented with 1× protease inhibitors and 1× phosphatase inhibitors (Roche) by sonication for 2 minutes. […] Protein concentration determination and SDS-PAGE (20 g protein per lane) were performed as described (7). Immunoblotting of nitrocellulose membranes was performed as described (7). Primary and HRP-conjugated secondary antibodies employed are listed in the Supplementary information.

Assay [3] deals with ESR1 fusion protein. Description: Immunoblotting of ESR1 fusion proteins after fulvestrant treatment. The assay is classed as cell-based. Particulars: 100 nM fulvestrant; hormone-deprived stable T47D and MCF7 cells. How it is done:
(§2) Immunoblotting and immunoprecipitation—Cells were harvested and whole cell lysates were prepared in RIPA lysis buffer as described (7) or in MIB lysis buffer (10) supplemented with 1× protease inhibitors and 1× phosphatase inhibitors (Roche) by sonication for 2 minutes. To make ER+ PDX tumor lysates, frozen PDX tumors were cryopulverized with a Covaris CP02 Pulverizer and then protein was extracted in MIB lysis buffer with sonication. Protein concentration determination and SDS-PAGE ([…] protein per lane) were performed as described (7). Immunoblotting of nitrocellulose membranes was performed as described (7). Primary and HRP-conjugated secondary antibodies employed are listed in the Supplementary information.
as §1, with “unaffected.” for “unaffected. In comparison, the WT ERα protein was reliably degraded, providing an endogenous control for fulvestrant activity (FIGS. 2A and 2D).”

The test system of assay [4] is T47D cells expressing active ESR1 fusion proteins. Description: Expression of estrogen response and EMT-related genes (RT-qPCR, immunoblotting). Particulars: 100 nM fulvestrant; E2-deprived T47D cells. The assay is classed as cell-based. On the procedure: as §2
Reverse transcription-quantitative PCR (RT-qPCR)—RNA was isolated from hormone-deprived stable T47D cells as above with concentration determined using a NanoDrop spectrophotometer. […]
To define the transcriptional profile driven by active ESR1 fusion proteins, RNA-Seq was performed on T47D cells expressing these ESR1 fusion cDNAs as well as control (YFP, ESR1-e6, and ESR1-WT) cells in the presence and absence of E2. […] The expression of three canonical estrogen response genes in stably transfected T47D cells were validated using reverse transcription-quantitative PCR (RT-qPCR). […]

The target of assay [5] is T2, ESR1-e6>YAP1 fusion protein, C-terminal HA-tagged (UniProt P03372 1-365; P46937 230-504, limits assumed).
T2 construct: Stably expressed in T47D cells by lentiviral transduction; also called ESR1-YAP1; not shown: C-terminal HA tag
Description: co-immunoprecipitation: anti-HA IP from hormone-deprived T47D cell lysates with or without 100 nM E2, blot with C-terminal ERα antibody.

The target of assay [6] is T3, ESR1-e6>SOX9 fusion protein, HA-tagged (UniProt P03372 1-365; P48436 229-509, limits assumed).
T3 construct: Stably expressed in T47D cells by lentiviral transduction; not shown: HA tag (constructed in a similar fashion to the C-terminal HA-tagged constructs)
T3 sequence (looked up): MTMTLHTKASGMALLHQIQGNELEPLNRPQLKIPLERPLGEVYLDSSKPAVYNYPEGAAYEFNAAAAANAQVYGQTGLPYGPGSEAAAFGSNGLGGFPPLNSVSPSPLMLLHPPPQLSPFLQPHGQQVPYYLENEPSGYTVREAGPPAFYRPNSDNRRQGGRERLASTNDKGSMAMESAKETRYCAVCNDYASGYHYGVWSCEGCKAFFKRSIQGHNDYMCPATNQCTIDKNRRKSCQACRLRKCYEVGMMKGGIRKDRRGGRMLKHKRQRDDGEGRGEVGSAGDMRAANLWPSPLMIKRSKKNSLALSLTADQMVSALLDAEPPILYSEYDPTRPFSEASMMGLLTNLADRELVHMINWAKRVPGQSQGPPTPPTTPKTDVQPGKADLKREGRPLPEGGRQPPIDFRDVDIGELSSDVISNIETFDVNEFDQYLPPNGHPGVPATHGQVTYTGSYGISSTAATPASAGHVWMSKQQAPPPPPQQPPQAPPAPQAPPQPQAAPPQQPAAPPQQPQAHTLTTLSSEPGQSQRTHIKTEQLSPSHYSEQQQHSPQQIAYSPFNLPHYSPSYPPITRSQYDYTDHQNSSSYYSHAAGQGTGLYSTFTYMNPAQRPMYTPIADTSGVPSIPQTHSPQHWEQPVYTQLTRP
The description is as above.

For assay [7], the target named is T4, ESR1-e6>PCDH11X fusion protein, C-terminal HA-tagged (UniProt P03372 1-365; Q9BZA7 1013-1347, limits assumed).
T4 construct: Stably expressed in T47D cells by lentiviral transduction; not shown: C-terminal HA tag
T4 sequence (looked up): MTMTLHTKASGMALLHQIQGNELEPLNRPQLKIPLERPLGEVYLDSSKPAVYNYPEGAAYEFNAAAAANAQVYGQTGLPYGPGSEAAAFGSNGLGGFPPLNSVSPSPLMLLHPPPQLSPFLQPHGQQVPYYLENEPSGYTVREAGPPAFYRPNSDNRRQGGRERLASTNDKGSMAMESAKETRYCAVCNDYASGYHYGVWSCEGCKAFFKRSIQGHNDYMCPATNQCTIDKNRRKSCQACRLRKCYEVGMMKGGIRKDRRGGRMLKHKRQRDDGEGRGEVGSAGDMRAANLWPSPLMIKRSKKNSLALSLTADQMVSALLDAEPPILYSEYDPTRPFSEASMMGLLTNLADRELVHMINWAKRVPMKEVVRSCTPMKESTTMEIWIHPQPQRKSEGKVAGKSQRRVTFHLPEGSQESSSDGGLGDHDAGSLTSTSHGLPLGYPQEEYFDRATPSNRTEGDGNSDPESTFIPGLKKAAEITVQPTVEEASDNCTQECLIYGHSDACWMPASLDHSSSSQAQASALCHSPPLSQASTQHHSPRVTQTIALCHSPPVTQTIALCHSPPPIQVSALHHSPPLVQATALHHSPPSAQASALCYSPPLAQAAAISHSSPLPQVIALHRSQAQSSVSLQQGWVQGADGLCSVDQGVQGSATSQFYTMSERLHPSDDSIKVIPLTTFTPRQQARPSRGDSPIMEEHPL
Described as above.

For `C[C@]12CC[C@@H]3c4ccc(O)cc4C[C@@H](CCCCCCCCC[S+]([O-])CCCC(F)(F)C(F)(F)F)[C@H]3[C@@H]1CC[C@@H]2O` (stereo partly shown) [fulvestrant], the “E2-independent growth of T47D cells expressing ESR1-e6>YAP1, >PCDH11X, >SOX9, >ARNT2-e18” value in assay [1] is “uniformly resistant to fulvestrant”. In assay [2], the “level of WT ERα protein” value is “degraded”. Moreover, the “level of ESR1 fusion protein” value in assay [3] is recorded as “unaffected”. In assay [4], the “expression of estrogen response and EMT-related genes induced by active ESR1 fusion proteins” value is on record as “unaffected”.

B1: endogenously expressed ERα (wild-type estrogen receptor alpha, encoded by ESR1) (receptor, UniProt P03372 1-595, looked up)
chain: T1 sequence (P03372 1-595)
notes: also called WT ERα; endogenous ERα
Regarding B1, the binding result in assay [5], in assay [6] and in assay [7] was “no binding” each time.
